From patent EP0325762B1, “Macrocyclic chelating agents and chelates thereof” (BRACCO S.p.A., priority 1987, dated 1989)

Columns and labels:
mouse = experiment: Determination of LD50 in the mouse by intravenous administration; type: in vivo; conditions: male and female mice, Strain: Crl:CDl(ICR)BR, range in parentheses
Source text: Determination of LD₅₀ in the mouse by intravenous administration of the compounds of the present invention. In table II are reported, as non-limiting examples, the LD₅₀ values for compounds A and B of the present invention, in comparison with GdCl₃ and with Gd/DTPA neutralized with N-methylglucamine.

[1] = Determination of relaxivity (longitudinal R1 by Inversion Recovery, transverse R2 by Carr-Purcell-Meiboom-Gill sequence, MINISPEC PC 120 BRUKER); type: physicochemical; conditions: 20 MHz (proton), 39°C, pH 7.3, 0 to 5 mM, water; for R₁: longitudinal relaxivity; for R₂: transverse relaxivity
Protocol: Determination of the relaxivity of the compounds of the present invention.
Longitudinal relaxivity (R₁) measurements were calculated using the "Inversion Recovery" sequence with an 8 point minimum and a 3 parameter fit, according to the program provided for the MINISPEC […] BRUKER instrument, by which measurements were taken.
Transverse relaxivity (R₂) measurements were calculated using the sequence of Carr, Purcell, Meiboom and Gill, according to the program provided for the MINISPEC 120 BRUKER instrument, by means of which measurements were taken, adjusting the apparatus in such a way as to observe the decay of the signal to about 1/3 of the starting value, with a score number higher or equal to 10 and a 2 parameter fit.
In table I, R₁ and R ₂ values calculated for compounds A and B in comparison with Gd/DTPA neutralized with N-methylglucamine, are reported as non-limiting examples.

For C[NH2+]C[C@H](O)[C@@H](O)[C@H](O)[C@H](O)CO.O=C([O-])CN1CCN(CC(=O)[O-])CCN(C(COCc2ccccc2)C(=O)[O-])CCN(CC(=O)[O-])CC1.[Gd+3] (stereo not shown) [A, Gd^(3+)/2-[1,4,7,10-tetraaza-4,7,10-tri(carboxymethyl)-cyclododecane-1-yl]-3-benzyloxypropionic acid, neutralized with N-methylglucamine], the “LD₅₀ in the mouse* in mmol/kg - intravenous” value (shortened to “LD₅₀ in the mouse* in mmol/kg”) (mouse) was 8.8 (7.79 - 9.94) mmol/kg, the R₁ ([1]; solvent 0.154 M NaCl (0.9%)) was 4.15 ± 0.01 mM/s and the R₂ ([1]; solvent 0.154 M NaCl (0.9%)) was 5.67 ± 0.02 mM/s.
With C[NH2+]C[C@H](O)[C@@H](O)[C@H](O)[C@H](O)CO.O=C([O-])CN1CCN(CC(=O)[O-])CCN(C(CO)C(=O)[O-])CCN(CC(=O)[O-])CC1.[Gd+3] (stereo not shown) [B, Gd^(3+)/2-[1,4,7,10-tetraaza-4,7,10-tri(carboxymethyl)-cyclododecane-1-yl]-3-hydroxypropionic acid, neutralized with N-methylglucamine] the “LD₅₀ in the mouse* in mmol/kg” value (mouse) was 13.1 (12.2 - 14.1) mmol/kg, the R₁ ([1]; solvent 0.154 M NaCl (0.9%)) was 3.72 ± 0.01 mM/s and the R₂ ([1]; solvent 0.154 M NaCl (0.9%)) was 5.06 ± 0.01 mM/s.
With CNC[C@H](O)[C@@H](O)[C@H](O)[C@H](O)CO.CNC[C@H](O)[C@@H](O)[C@H](O)[C@H](O)CO.O=C([O-])CN(CCN(CC(=O)[O-])CC(=O)O)CCN(CC(=O)[O-])CC(=O)O.[Gd+3] [Gd/DTPA, reference compound] the “LD₅₀ in the mouse* in mmol/kg” value (mouse) was 4.8 (4.47 - 5.16) mmol/kg, the R₁ ([1]; solvent 0.154 M (0.9%)) was 4.08 ± 0.01 mM/s and the R₂ ([1]; solvent 0.154 M (0.9%)) was 5.15 ± 0.02 mM/s.
In the case of [Cl][Gd]([Cl])[Cl] [GdCl₃, reference compound], the “LD₅₀ in the mouse* in mmol/kg” value (mouse) was 0.28 (0.24 - 0.32) mmol/kg.
